We go through 1 compound from PMC5860131, “Identification of natural products as novel ligands for the human 5-HT2C receptor” (Biophysics Reports, 2018).

Common to all, as to type: binding
Assay [1] addresses T1, 5-HT2C receptor G218^5.42S (Homo sapiens, UniProt P28335, DEL255-298/G218S/G251D/H250E/H252N/INS299[…]/L248D/M247A/M300L/T253W).
T1 construct: the N- and C-terminals were truncated by 39 and 65 residues, respectively; PreScission protease site + 10× His (C); made in house
Description: CPM thermal stability assay, 5-HT2C mutant G218S. The text has this:
(§1) Based on the binding poses predicted by molecular docking, single-point mutations were designed to test their impact on ligand binding. Mutations of several residues include the highly conserved Asp134^3.32, which is known to cause 5-HT1B or 5-HT2B receptors to abolish the monoamine ligand binding as reported in the literature (Wang et al. [2013]). In this study, residues forming hydrophobic interactions with the substitution groups on the aporphine scaffold of (–)-crebanine (1) were selected for mutation as well and they are Thr139^3.37, Gly218^5.42, Ala222^5.46, and Leu209^ECL2. Effects of those mutations were tested with the CPM assay and the affinity MS assay (Table 2). In the affinity MS experiment, relative ligand-binding capacity (represented by binding %) to different mutants and the wild-type receptor was compared. […]
(§2) Purified 5-HT2C receptor protein was thoroughly mixed with CPM fluorescent dyes. […] Fluorescence signals, wavelength 387 nm (excitation) and 463 nm (emission), were monitored (Alexandrov et al. [2008]). […] The thermal denaturation of the samples was evaluated using the scatter plot curve, where the horizontal coordinates represented temperature and the vertical coordinates indicated normalized fluorescence intensity recorded for a particular temperature. […]

Assay [2] concerns the target T2, 5-HT2C receptor G218^5.42A (Homo sapiens, UniProt P28335, DEL255-298/G218A/G251D/H250E/H252N/INS299[…]/L248D/M247A/M300L/T253W).
T2 construct: the N- and C-terminals were truncated by 39 and 65 residues, respectively; PreScission protease site + 10× His (C); made in house
The assay is described as follows: Affinity MS assay, 5-HT2C mutant G218A.
Excerpt: as §1, with “compared. Among the six mutations tested, five of them reduced the binding of (–)-crebanine (1) by more than 40% relative to binding to the wild-type receptor, displaying the importance of hydrophobic interactions.” for “compared.”
(§3) Four experimental replicates were prepared for each pair of the test ligand and the negative control. […] S/C ratios refer to the ratio of MS response of a specific ligand detected in the 5-HT2C incubation sample versus the control. […]

For assay [3], the target named is T3, 5-HT2C receptor A222^5.46F (Homo sapiens, UniProt P28335, A222F/DEL255-298/G251D/H250E/H252N/INS299[…]/L248D/M247A/M300L/T253W).
T3 construct: the N- and C-terminals were truncated by 39 and 65 residues, respectively; PreScission protease site + 10× His (C); made in house
T3 sequence (P28335 with tags, fused parts or gaps with the stated changes): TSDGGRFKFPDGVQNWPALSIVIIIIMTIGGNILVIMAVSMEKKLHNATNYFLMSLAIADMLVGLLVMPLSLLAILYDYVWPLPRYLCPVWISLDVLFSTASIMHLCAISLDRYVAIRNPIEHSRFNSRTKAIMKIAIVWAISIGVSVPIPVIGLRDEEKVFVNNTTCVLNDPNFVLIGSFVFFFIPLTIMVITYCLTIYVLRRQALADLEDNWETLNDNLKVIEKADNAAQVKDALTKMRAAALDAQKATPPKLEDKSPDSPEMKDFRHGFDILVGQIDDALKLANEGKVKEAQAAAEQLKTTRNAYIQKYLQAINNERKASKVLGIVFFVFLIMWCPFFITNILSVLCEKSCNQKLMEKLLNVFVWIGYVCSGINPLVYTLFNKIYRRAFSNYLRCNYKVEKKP
Description: Affinity MS assay, 5-HT2C mutant A222F. Particulars: mutant A222^5.46F, n = 2.
Excerpt: as §1, with “compared. Among the six mutations tested, five of them reduced the binding of (–)-crebanine (1) by more than 40% relative to binding to the wild-type receptor, displaying the importance of hydrophobic interactions.” for “compared.”
as §3

Assay [4] concerns the target T4, 5-HT2C receptor L209^ECL2F (Homo sapiens, UniProt P28335, DEL255-298/G251D/H250E/H252N/INS299[…]/L209F/L248D/M247A/M300L/T253W).
T4 construct: the N- and C-terminals were truncated by 39 and 65 residues, respectively; PreScission protease site + 10× His (C); made in house
Description: CPM thermal stability assay, 5-HT2C mutant L209F. The note with it: n = 2.
Excerpt: as §1, §2

The target of assay [5] is T3, 5-HT2C receptor A222^5.46F. Description: CPM thermal stability assay, 5-HT2C mutant A222F. Particulars: mutant A222^5.46F, n = 2.
Excerpt: as §1, §2

T2 sequence (P28335 with tags, fused parts or gaps with the stated changes): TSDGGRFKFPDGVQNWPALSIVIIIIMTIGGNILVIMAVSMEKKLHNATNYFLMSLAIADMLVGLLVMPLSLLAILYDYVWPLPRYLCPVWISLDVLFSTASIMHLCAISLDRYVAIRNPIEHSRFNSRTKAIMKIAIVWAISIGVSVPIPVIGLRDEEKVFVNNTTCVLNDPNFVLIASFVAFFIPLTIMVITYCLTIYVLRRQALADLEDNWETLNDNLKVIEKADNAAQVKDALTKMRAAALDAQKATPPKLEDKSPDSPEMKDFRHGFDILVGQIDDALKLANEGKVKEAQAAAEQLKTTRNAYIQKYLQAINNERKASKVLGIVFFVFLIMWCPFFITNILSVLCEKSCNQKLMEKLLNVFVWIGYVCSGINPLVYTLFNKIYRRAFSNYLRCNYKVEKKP
T1 sequence (P28335 with tags, fused parts or gaps with the stated changes): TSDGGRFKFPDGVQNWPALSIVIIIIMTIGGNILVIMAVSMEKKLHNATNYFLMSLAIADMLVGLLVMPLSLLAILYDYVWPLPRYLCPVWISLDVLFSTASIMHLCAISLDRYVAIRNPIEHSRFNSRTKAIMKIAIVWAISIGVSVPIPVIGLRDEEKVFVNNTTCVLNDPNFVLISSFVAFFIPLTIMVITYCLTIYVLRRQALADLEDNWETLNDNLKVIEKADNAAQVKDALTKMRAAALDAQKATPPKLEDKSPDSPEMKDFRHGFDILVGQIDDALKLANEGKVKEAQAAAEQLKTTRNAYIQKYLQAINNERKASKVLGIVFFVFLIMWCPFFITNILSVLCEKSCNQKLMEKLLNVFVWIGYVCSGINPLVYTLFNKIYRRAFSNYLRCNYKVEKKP
T4 sequence (P28335 with tags, fused parts or gaps with the stated changes): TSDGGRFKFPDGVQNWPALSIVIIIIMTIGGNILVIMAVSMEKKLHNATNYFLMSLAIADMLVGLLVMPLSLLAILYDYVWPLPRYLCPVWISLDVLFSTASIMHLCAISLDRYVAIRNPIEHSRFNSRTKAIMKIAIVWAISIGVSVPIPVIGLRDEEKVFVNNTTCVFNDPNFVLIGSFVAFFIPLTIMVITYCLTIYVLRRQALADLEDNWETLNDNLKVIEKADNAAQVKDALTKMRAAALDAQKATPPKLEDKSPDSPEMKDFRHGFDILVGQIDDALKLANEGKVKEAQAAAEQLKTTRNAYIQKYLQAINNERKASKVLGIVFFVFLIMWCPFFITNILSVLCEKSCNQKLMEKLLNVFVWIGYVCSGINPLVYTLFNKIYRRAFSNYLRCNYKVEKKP

`COc1ccc2c(c1OC)C[C@@H]1c3c(cc4c(c3-2)OCO4)CCN1C` [Compound 1, (–)-crebanine]: the “(–)-Crebanine/CPM (Tm)” value was 53.24 °C in assay [1] (mutant G218^5.42S, n = 2); 55.46 °C in assay [4]; 55.70 °C in assay [5]. In addition, the “Tm value decrease versus wild-type” value in assay [1] (mutation Gly218^5.42Ser) is “over 6.0 °C”. In addition, the “(–)-Crebanine/MS relative ligand binding” value in assay [2] (mutant G218^5.42A, n = 2) is given as 9.82%; in assay [3], 15.87%. Also, the “ligand-binding capacity reduction versus wild-type” value in assay [2] (mutation Gly218^5.42Ala) is “over 60%”.
